These results are taken from patent US20260274891A1, “¿ OPIOID RECEPTOR AGONIST AND USE THEREOF” (CHENGDU AODA BIOTECHNOLOGY CO., LTD., priority 2023, published 2026).

Like-named read-outs stand apart in the source and are kept apart here. Square brackets hold non-standard residues; d marks the D form. Peptide text beside a SMILES is read from it. * marks the point of attachment. Piperidin1yl(4-NH2,4-COOH) = NC1(C(=O)O)CCN(*)CC1; Piperidinyl(4-NH2,4-CONH2) = NC(=O)C1(N)CCN(*)CC1; X10 = NCCCC[C@@H](NC(=O)C1(N)CCN(*)CC1)C(=O)O; X1 = NCCCC[C@@H](NC(=O)C1(N)CCN(*)CC1)C(N)=O; X4 = NCCCC[C@H](NC(=O)C1(N)CCN(*)CC1)C(=O)O; X6 = NCCCC[C@H](NC(=O)C1(N)CCN(*)CC1)C(N)=O; dAla(cPr) = N[C@H](CC1CC1)C(=O)O; Trifluoroethyl = FC(F)(F)C*; iPr = CC(C)*

The test has as its target T1, human κ opioid receptor (OPRK1) (Homo sapiens, UniProt P41145).
T1 construct: expressed in transfected cells; host or cells: CHO-K1
The test can be described thus: Determination of activities of κ receptor agonists: inhibition of forskolin-stimulated cAMP release (HTRF) in stably transfected CHO-K1 cells. The format is cell-based. The conditions noted are these: for Relative Activity %: relative to Difelikefalin = 100.0. An excerpt:
Gi-coupled human κ opioid receptor (OPRK1), upon stimulation with its specific opioid receptor agonists, can inhibit the intracellular adenylate cyclase pathway, and decrease cAMP levels. Forskolin can stimulate cAMP release in cell lines highly expressing opioid receptors. By stimulating cell lines stably transfected with opioid receptors, the inhibitory effect of a test compound on forskolin-stimulated cAMP release can be measured to determine the activity of the compound. The relative light units (RLU) from the cells after stimulation with different doses were measured via the homogeneous time-resolved fluorescence technique (HTRF), and the EC50 value of the agonist was subsequently calculated. This activity determination method is a currently commonly used method for determining the activities of opioid receptor agonists at home and abroad.
A CHO-K1 cell line stably expressing opioid receptors was used. Stably transfected cells were stimulated with various concentrations of agonists (under the stimulation of a certain concentration of forskolin). The relative light units from the cells after stimulation with different doses were measured, from which the EC50 value of the agonist was subsequently obtained by calculation.
On the technique in general: Time-resolved FRET reads energy transfer from a long-lived donor to a nearby acceptor.

Where [1] appears, read: CHO-K1 cell line stably expressing opioid receptors, forskolin-stimulated cAMP, HTRF, read-out: EC50.

T1 sequence (P41145 whole entry): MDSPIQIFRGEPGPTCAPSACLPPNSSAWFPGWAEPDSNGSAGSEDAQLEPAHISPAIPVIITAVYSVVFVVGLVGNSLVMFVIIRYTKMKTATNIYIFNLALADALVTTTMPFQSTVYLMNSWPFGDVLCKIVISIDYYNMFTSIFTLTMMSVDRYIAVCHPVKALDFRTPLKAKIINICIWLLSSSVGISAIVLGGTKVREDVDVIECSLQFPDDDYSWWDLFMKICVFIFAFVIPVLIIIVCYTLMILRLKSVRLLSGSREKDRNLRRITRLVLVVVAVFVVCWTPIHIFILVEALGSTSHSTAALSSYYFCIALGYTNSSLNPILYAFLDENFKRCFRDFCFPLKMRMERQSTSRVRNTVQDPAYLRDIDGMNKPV

Turning to `CCOc1ccc(C[C@@H](NC(=O)[C@H](N)Cc2ccccc2)C(=O)N[C@H](CC2CC2)C(=O)N[C@H](CCCCN)C(=O)N2CCC(N)(C(N)=O)CC2)cc1` [Compound 67, D-Phe-D-Tyr(Et)-D-cyclopropylalanine-D-Lys-4-aminopiperidine-4-carboxamide-NH2] (H-[dF][dY](Et)[dAla(cPr)][dK]-{Piperidinyl(4-NH2,4-CONH2)}; N-terminus assumed), the “Relative Activity %” value amounted to 477.7%. Further, the half-maximal effective concentration (EC50) (in general, the concentration needed to bring the measured effect to its halfway point) under setting [1] is 0.127 nM.

On to `CCOc1ccc(C[C@@H](NC(=O)[C@H](N)Cc2ccccc2)C(=O)N[C@H](CC2CC2)C(=O)N[C@H](CCCCN)C(=O)N2CCC(N)(C(=O)O)CC2)cc1` [Compound 68, D-Phe-D-Tyr(Et)-D-cyclopropylalanine-D-Lys-4-aminopiperidine-4-carboxamide-OH] (H-[dF][dY](Et)[dAla(cPr)][dK]-{Piperidin1yl(4-NH2,4-COOH)}; N-terminus assumed), for which the “Relative Activity %” value is on record as 483.4%. The EC50 under setting [1] was 0.126 nM.

As for `CCOc1ccc(C[C@@H](NC(=O)[C@H](N)Cc2ccccc2)C(=O)N[C@H](CC2CC2)C(=O)N[C@H](CCCCN)C(=O)N2CCC(N)(C(=O)N[C@@H](CCCCN)C(N)=O)CC2)cc1` [Compound 69, D-Phe-D-Tyr(Et)-D-cyclopropylalanine-D-Lys-4-aminopiperidine-4-carboxamide-Lys-NH2] (H-[dF][dY](Et)[dAla(cPr)][dK]-X6; N-terminus assumed), the “Relative Activity %” value came to 1432.1%. Also, the EC50 under setting [1] was 0.0424 nM.

On to `CCOc1ccc(C[C@@H](NC(=O)[C@H](N)Cc2ccccc2)C(=O)N[C@H](CC2CC2)C(=O)N[C@H](CCCCN)C(=O)N2CCC(N)(C(=O)N[C@H](CCCCN)C(N)=O)CC2)cc1` [Compound 71, D-Phe-D-Tyr(Et)-D-cyclopropylalanine-D-Lys-4-aminopiperidine-4-carboxamide-D-Lys-NH2] (H-[dF][dY](Et)[dAla(cPr)][dK]-X1; N-terminus assumed), for which it took 0.041 nM to reach a half-maximal effect (EC50) and the “Relative Activity %” value was found to be 1481.0%.

Take `COc1ccc(C[C@@H](NC(=O)[C@H](N)Cc2ccccc2)C(=O)N[C@H](CC(C)C)C(=O)N[C@H](CCCCN)C(=O)N2CCC(N)(C(=O)O)CC2)cc1` [Compound 86, D-Phe-D-Tyr(Me)-D-Leu-D-Lys-4-aminopiperidine-4-carboxamide-OH] (H-[dF][dY](Me)[dL][dK]-{Piperidin1yl(4-NH2,4-COOH)}; N-terminus assumed): the EC50 was 0.121 nM and the “Relative Activity %” value was 501.0%.

For the molecule `COc1ccc(C[C@@H](NC(=O)[C@H](N)Cc2ccccc2)C(=O)N[C@H](CC(C)C)C(=O)N[C@H](CCCCN)C(=O)N2CCC(N)(C(=O)N[C@@H](CCCCN)C(N)=O)CC2)cc1` [Compound 87, D-Phe-D-Tyr(Me)-D-Leu-D-Lys-4-aminopiperidine-4-carboxamide-Lys-NH2] (H-[dF][dY](Me)[dL][dK]-X6; N-terminus assumed), a half-maximal response (EC50) required 0.0422 nM and the “Relative Activity %” value amounted to 1438.9%.

Take `CC(C)C[C@@H](NC(=O)[C@@H](Cc1ccc(OCC(F)(F)F)cc1)NC(=O)[C@H](N)Cc1ccccc1)C(=O)N[C@H](CCCCN)C(=O)N1CCC(N)(C(N)=O)CC1` [Compound 91, D-Phe-D-Tyr(CH2CF3)-D-Leu-D-Lys-4-aminopiperidine-4-carboxamide-NH2] (H-[dF][dY](Trifluoroethyl)[dL][dK]-{Piperidinyl(4-NH2,4-CONH2)}; N-terminus assumed): the EC50 was 0.11 nM and the “Relative Activity %” value is on record as 550.0%.

Regarding `CC(C)C[C@@H](NC(=O)[C@@H](Cc1ccc(OCC(F)(F)F)cc1)NC(=O)[C@H](N)Cc1ccccc1)C(=O)N[C@H](CCCCN)C(=O)N1CCC(N)(C(=O)O)CC1` [Compound 92, D-Phe-D-Tyr(CH2CF3)-D-Leu-D-Lys-4-aminopiperidine-4-carboxamide-OH] (H-[dF][dY](Trifluoroethyl)[dL][dK]-{Piperidin1yl(4-NH2,4-COOH)}; N-terminus assumed), the EC50 stood at 0.109 nM and the “Relative Activity %” value was 558.6%.

`CC(C)C[C@@H](NC(=O)[C@@H](Cc1ccc(OCC(F)(F)F)cc1)NC(=O)[C@H](N)Cc1ccccc1)C(=O)N[C@H](CCCCN)C(=O)N1CCC(N)(C(=O)N[C@H](CCCCN)C(N)=O)CC1` [Compound 95, D-Phe-D-Tyr(CH2CF3)-D-Leu-D-Lys-4-aminopiperidine-4-carboxamide-D-Lys-NH2] (H-[dF][dY](Trifluoroethyl)[dL][dK]-X1; N-terminus assumed): the EC50 stood at 0.0505 nM and the “Relative Activity %” value was 1202.4%.

With `CC(C)C[C@@H](NC(=O)[C@@H](Cc1ccc(OCC(F)(F)F)cc1)NC(=O)[C@H](N)Cc1ccccc1)C(=O)N[C@H](CCCCN)C(=O)N1CCC(N)(C(=O)N[C@H](CCCCN)C(=O)O)CC1` [Compound 96, D-Phe-D-Tyr(CH2CF3)-D-Leu-D-Lys-4-aminopiperidine-4-carboxamide-D-Lys-OH] (H-[dF][dY](Trifluoroethyl)[dL][dK]-X10; N-terminus assumed), the EC50 is 0.0494 nM and the “Relative Activity %” value is 1229.1%.

With `CC(C)C[C@@H](NC(=O)[C@@H](Cc1ccc(OC(C)C)cc1)NC(=O)[C@H](N)Cc1ccccc1)C(=O)N[C@H](CCCCN)C(=O)N1CCC(N)(C(=O)O)CC1` [Compound 98, D-Phe-D-Tyr(Ipr)-D-Leu-D-Lys-4-aminopiperidine-4-carboxamide-OH] (H-[dF][dY](iPr)[dL][dK]-{Piperidin1yl(4-NH2,4-COOH)}; N-terminus assumed), the midpoint of the response, the EC50, lay at 0.145 nM and the “Relative Activity %” value was 418.2%.

In the case of `CC(C)C[C@@H](NC(=O)[C@@H](Cc1ccc(OC(C)C)cc1)NC(=O)[C@H](N)Cc1ccccc1)C(=O)N[C@H](CCCCN)C(=O)N1CCC(N)(C(=O)N[C@@H](CCCCN)C(=O)O)CC1` [Compound 100, D-Phe-D-Tyr(Ipr)-D-Leu-D-Lys-4-aminopiperidine-4-carboxamide-Lys-OH] (H-[dF][dY](iPr)[dL][dK]-X4; N-terminus assumed), the response was half-maximal at 0.0716 nM (EC50) and the “Relative Activity %” value turned out to be 848.0%.

Regarding `CC(C)C[C@@H](NC(=O)[C@@H](Cc1ccc(OC(C)C)cc1)NC(=O)[C@H](N)Cc1ccccc1)C(=O)N[C@H](CCCCN)C(=O)N1CCC(N)(C(=O)N[C@H](CCCCN)C(N)=O)CC1` [Compound 101, D-Phe-D-Tyr(Ipr)-D-Leu-D-Lys-4-aminopiperidine-4-carboxamide-D-Lys-NH2] (H-[dF][dY](iPr)[dL][dK]-X1; N-terminus assumed), the concentration for a half-maximal effect (EC50) turned out to be 0.0728 nM and the “Relative Activity %” value is 834.1%.

As to `CC(C)C[C@@H](NC(=O)[C@@H](Cc1ccc(OC(C)C)cc1)NC(=O)[C@H](N)Cc1ccccc1)C(=O)N[C@H](CCCCN)C(=O)N1CCC(N)(C(=O)N[C@H](CCCCN)C(=O)O)CC1` [Compound 102, D-Phe-D-Tyr(Ipr)-D-Leu-D-Lys-4-aminopiperidine-4-carboxamide-D-Lys-OH] (H-[dF][dY](iPr)[dL][dK]-X10; N-terminus assumed), the response was half-maximal at 0.073 nM (EC50) and the “Relative Activity %” value amounted to 831.8%.

As to `CC(C)C[C@@H](NC(=O)[C@@H](Cc1ccc(F)cc1)NC(=O)[C@H](N)Cc1ccccc1)C(=O)N[C@H](CCCCN)C(=O)N1CCC(N)(C(=O)O)CC1` [Compound 104, D-Phe-D-Phe(4-F)-D-Leu-D-Lys-4-aminopiperidine-4-carboxamide-OH], it took 0.215 nM to reach a half-maximal effect (EC50) and the “Relative Activity %” value was found to be 281.9%.
